From US20160272617A1, “SUBSTITUTED PHENYLALANINE DERIVATIVES” (BAYER PHARMA AKTIENGESELLSCHAFT, priority 2013, published 2016)
Counter-ions that a name gives are not always drawn.

Each compound was assayed against T1, human factor XIa (Homo sapiens, UniProt P03951) (assay: Measurement of FXIa inhibition (fluorogenic peptide substrate Boc-Glu(OBzl)-Ala-Arg-AMC)). Details: factor XIa from Kordia, 15 min preincubation, 30 min at 22° C., fluorescence.
T1 construct: purchased Kordia
Format: biochemical
Description: The factor XIa inhibition of the inventive substances is determined using a biochemical test system which utilizes the reaction of a peptidic factor XIa substrate to determine the enzymatic activity of human factor XIa. Here, factor XIa cleaves from the peptic factor XIa substrate the C-terminal aminomethylcoumarin (AMC), the fluorescence of which is measured. The determinations are carried out in microtitre plates.
Test substances are dissolved in dimethyl sulphoxide and serially diluted in dimethyl sulphoxide (3000 μM to 0.0078 μM; resulting final concentrations in the test: 50 μM to 0.00013 μM). In each case 1 μl of the diluted substance solutions is placed into the wells of white microtitre plates from Greiner (384 wells). Subsequently, the following are added successively: 20 μl of assay buffer (50 mmol/l Tris buffer pH 7.4; 100 mmol/l sodium chloride; 5 mmol/l calcium chloride; 0.1% bovine serum albumin) and 20 μl of factor XIa from Kordia (0.45 nM in assay buffer). After 15 min of incubation, the enzyme reaction is started by addition of 20 μl of the factor XIa substrate Boc-Glu(OBzl)-Ala-Arg-AMC dissolved in assay buffer (10 μM in assay buffer) from Bachem, the mixture is incubated at room temperature (22° C.) for 30 min and fluorescence is then measured (excitation: 360 nm, emission: 460 nm). The measured emissions of the test mixtures with test substance are compared to those of control mixtures without test substance (only dimethyl sulphoxide instead of test substance in dimethyl sulphoxide), and the IC50 values are calculated from the concentration/activity relationships.

T1 sequence (P03951 388-625 limits assumed): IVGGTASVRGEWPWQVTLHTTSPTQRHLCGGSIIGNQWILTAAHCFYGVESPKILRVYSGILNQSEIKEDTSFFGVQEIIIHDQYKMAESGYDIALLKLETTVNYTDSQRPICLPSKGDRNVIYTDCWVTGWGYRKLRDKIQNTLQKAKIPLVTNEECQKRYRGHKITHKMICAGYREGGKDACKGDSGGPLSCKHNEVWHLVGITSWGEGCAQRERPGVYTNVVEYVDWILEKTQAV
T1 sequence (P03951 19-387 partner limits assumed): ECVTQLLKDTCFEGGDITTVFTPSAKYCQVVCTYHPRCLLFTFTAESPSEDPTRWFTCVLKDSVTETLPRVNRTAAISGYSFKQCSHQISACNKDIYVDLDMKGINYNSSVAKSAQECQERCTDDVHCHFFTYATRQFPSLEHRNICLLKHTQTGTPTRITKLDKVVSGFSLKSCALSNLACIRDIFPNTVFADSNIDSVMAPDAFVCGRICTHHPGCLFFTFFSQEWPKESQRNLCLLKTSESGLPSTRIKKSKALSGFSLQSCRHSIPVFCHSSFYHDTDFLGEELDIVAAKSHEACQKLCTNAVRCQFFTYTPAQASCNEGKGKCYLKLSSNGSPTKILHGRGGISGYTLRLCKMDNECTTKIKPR

Structure (SMILES) | IC50 [nM]
Cc1cc(C(=O)N[C@H]2CC[C@H](O)CC2)ccc1-c1ccc(C[C@H](NC(=O)[C@H]2CC[C@H](CN)CC2)C(=O)Nc2ccc(-c3nnc(C(F)(F)C(F)(F)C(=O)O)[nH]3)cc2)cc1 (single isomer, unassigned; enantiomer 1) [Example 168] | 0.5
Cc1cc(C(=O)N[C@H]2CC[C@H](O)CC2)ccc1-c1ccc(C[C@@H](NC(=O)[C@H]2CC[C@H](CN)CC2)C(=O)Nc2ccc(-c3nnc(C(F)(F)C(F)(F)C(=O)O)[nH]3)cc2)cc1 (single isomer, unassigned; enantiomer 2) [Example 105] | 65
CNC(=O)c1ccc(-c2ccc(C[C@H](NC(=O)[C@H]3CC[C@H](CN)CC3)C(=O)Nc3ccc(-c4nn[nH]n4)cc3)cc2)c(C)c1 [Example 19, 4′-[(2S)-2-({[trans-4-(Aminomethyl)cyclohexyl]carbonyl}amino)-3-oxo-3-{[4-(2H-tetrazol-5-yl)phenyl]amino}propyl]-N,2-dimethylbiphenyl-4-carboxamide] | 2.9
Cc1cc(C(=O)NC2CCNCC2)ccc1-c1ccc(C[C@H](NC(=O)[C@H]2CC[C@H](CN)CC2)C(=O)Nc2ccc(-c3nnc(CC(C)C)[nH]3)cc2)cc1 [Example 58, 4′-[(2S)-2-({[trans-4-(Aminomethyl)cyclohexyl]carbonyl}amino)-3-{[4-(3-isobutyl-4H-1,2,4-triazol-5-yl)phenyl]amino}-3-oxopropyl]-2-methyl-N-(piperidin-4-yl)biphenyl-4-carboxamide hydrochloride] | 41
Cc1cc(C(=O)NC(CN(C)C)CN(C)C)ccc1-c1ccc(C[C@H](NC(=O)[C@H]2CC[C@H](CN)CC2)C(=O)Nc2ccc(-c3nn[nH]n3)cc2)cc1 [Example 66, 4′-[(2S)-2-({[trans-4-(Aminomethyl)cyclohexyl]carbonyl}amino)-3-oxo-3-{[4-(2H-tetrazol-5-yl)phenyl]amino}propyl]-N-[1,3-bis(dimethylamino)propan-2-yl]-2-methylbiphenyl-4-carboxamide hydrochloride] | 29
COc1cc(C(=O)NC2CCC(N(C)C)CC2)ccc1-c1ccc(C[C@H](NC(=O)[C@H]2CC[C@H](CN)CC2)C(=O)Nc2ccc(-c3nn[nH]n3)cc2)cc1 (stereo partly drawn) [Example 67, 4′-[(2S)-2-({[trans-4-(Aminomethyl)cyclohexyl]carbonyl}amino)-3-oxo-3-{[4-(2H-tetrazol-5-yl)phenyl]amino}propyl]-N-[4-(dimethylamino)cyclohexyl]-2-methoxybiphenyl-4-carboxamide hydrochloride] | 4.6
Cc1cc(C(=O)NC2CCC(N(C)C)CC2)ccc1-c1ccc(C[C@H](NC(=O)[C@H]2CC[C@H](CN)CC2)C(=O)Nc2ccc3c(=O)[nH][nH]c3c2)cc1 (stereo partly drawn) [Example 68, 4′-{(2S)-2-({[trans-4-(Aminomethyl)cyclohexyl]carbonyl}amino)-3-oxo-3-[(3-oxo-2,3-dihydro-1H-indazol-6-yl)amino]propyl}-N-[4-(dimethylamino)cyclohexyl]-2-methylbiphenyl-4-carboxamide hydrochloride] | 8.3
Cc1cc(C(=O)N2CCS(=O)(=O)CC2)ccc1-c1ccc(C[C@H](NC(=O)[C@H]2CC[C@H](CN)CC2)C(=O)Nc2ccc(-c3nn[nH]n3)cc2)cc1 [Example 69, trans-4-(Aminomethyl)-N-[(2S)-3-{4′-[(1,1-dioxidothiomorpholin-4-yl)carbonyl]-2′-methyl-biphenyl-4-yl}-1-oxo-1-{[4-(2H-tetrazol-5-yl)phenyl]amino}propan-2-yl]cyclohexanecarboxamide hydrochloride] | 2.4
COc1cc(C(=O)N[C@@H]2CCNC2)ccc1-c1ccc(C[C@H](NC(=O)[C@H]2CC[C@H](CN)CC2)C(=O)Nc2ccc(-c3nn[nH]n3)cc2)cc1 [Example 71, 4′-[(2S)-2-({[trans-4-(Aminomethyl)cyclohexyl]carbonyl}amino)-3-oxo-3-{[4-(2H-tetrazol-5-yl)phenyl]amino}propyl]-2-methoxy-N-[(3R)-pyrrolidin-3-yl]biphenyl-4-carboxamide hydrochloride] | 7.4
Cc1cc(C(=O)N[C@H]2CCCN(C)C2)ccc1-c1ccc(C[C@H](NC(=O)[C@H]2CC[C@H](CN)CC2)C(=O)Nc2ccc(-c3nn[nH]n3)cc2)cc1 [Example 73, 4′-[(2S)-2-({[trans-4-(Aminomethyl)cyclohexyl]carbonyl}amino)-3-oxo-3-{[4-(2H-tetrazol-5-yl)phenyl]amino}propyl]-2-methyl-N-[(3S)-1-methylpiperidin-3-yl]biphenyl-4-carboxamide hydrochloride] | 3.4
Cc1cc(C(=O)N[C@@H]2CCNC2)ccc1-c1ccc(C[C@H](NC(=O)[C@H]2CC[C@H](CN)CC2)C(=O)Nc2ccc(-c3nc(C(F)(F)C(F)(F)F)n[nH]3)cc2)cc1 [Example 75, 4′-[(2S)-2-({[trans-4-(Aminomethyl)cyclohexyl]carbonyl}amino)-3-oxo-3-({4-[3-(pentafluoroethyl)-1H-1,2,4-triazol-5-yl]phenyl}amino)propyl]-2-methyl-N-[(3R)-pyrrolidin-3-yl]biphenyl-4-carboxamide hydrochloride] | 2.5

The remaining lines, values ahead:

IC50 [nM] | Structure (SMILES)
2 | Cc1cc(C(=O)NC2CCNCC2)ccc1-c1ccc(C[C@H](NC(=O)[C@H]2CC[C@H](CN)CC2)C(=O)Nc2ccc(-c3nn[nH]n3)cc2)cc1 [Example 1, 4′-[(2S)-2-({[trans-4-(Aminomethyl)cyclohexyl]carbonyl}amino)-3-oxo-3-{[4-(2H-tetrazol-5-yl)phenyl]amino}propyl]-2-methyl-N-(piperidin-4-yl)biphenyl-4-carboxamide hydrochloride]
1.6 | Cc1cc(C(=O)N[C@@H]2CCCCNC2=O)ccc1-c1ccc(C[C@H](NC(=O)[C@H]2CC[C@H](CN)CC2)C(=O)Nc2ccc(-c3nn[nH]n3)cc2)cc1 [Example 64, 4′-[(2S)-2-({[trans-4-(Aminomethyl)cyclohexyl]carbonyl}amino)-3-oxo-3-{[4-(2H-tetrazol-5-yl)phenyl]amino}propyl]-2-methyl-N-[(3R)-2-oxoazepan-3-yl]biphenyl-4-carboxamide hydrochloride]
1.6 | Cc1cc(C(=O)NC2CCC(N(C)C)CC2)ccc1-c1ccc(C[C@H](NC(=O)[C@H]2CC[C@H](CN)CC2)C(=O)Nc2ccc(-c3nn[nH]n3)cc2)cc1 (stereo partly drawn) [Example 70, 4′-[(2S)-2-({[trans-4-(Aminomethyl)cyclohexyl]carbonyl}amino)-3-oxo-3-{[4-(2H-tetrazol-5-yl)phenyl]amino}propyl]-N-[4-(dimethylamino)cyclohexyl]-2-methylbiphenyl-4-carboxamide hydrochloride]
1.3 | Cc1cc(C(=O)NC2CCCNC2=O)ccc1-c1ccc(C[C@H](NC(=O)[C@H]2CC[C@H](CN)CC2)C(=O)Nc2ccc(-c3nc(C(F)F)n[nH]3)cc2)cc1 (stereo partly drawn) [Example 74, 4′-[(2S)-2-({[trans-4-(Aminomethyl)cyclohexyl]carbonyl}amino)-3-({4-[3-(difluoromethyl)-1H-1,2,4-triazol-5-yl]phenyl}amino)-3-oxopropyl]-2-methyl-N-(2-oxopiperidin-3-yl)biphenyl-4-carboxamide hydrochloride]
1.8 | Cc1cc(C(=O)NC2CCC(O)C2)ccc1-c1ccc(CC(NC(=O)C2CCC(CN)CC2)C(=O)Nc2ccc(-c3nnn[nH]3)c(F)c2)cc1 [Example 92, 4′-[(2S)-2-({[trans-4-(Aminomethyl)cyclohexyl]carbonyl}amino)-3-{[3-fluoro-4-(2H-tetrazol-5-yl)phenyl]amino}-3-oxopropyl]-N-(3-hydroxycyclopentyl)-2-methylbiphenyl-4-carboxamide hydrochloride]
